Data as given in patent publication US20150050410A1, “COMPOUNDS, COMPOSITIONS, AND METHODS FOR MODULATING SWEET TASTE” (Chromocell Corporation, priority 2013, published 2015).

Columns and labels:
Format in all cases: in vivo
[1] = system: perception of the sweet taste of an aqueous solution of sweetener in humans; test: Two-alternative forced choice "sip and spit" method (2AFC); details: for Fold increase in perceived sweetness: positive control conc. / test sample conc.
Procedure: The taste test panelists used in the Examples 1-3 were selected using a sensory acuity screening program. Candidate taste panelists were recruited, with prescreening and personal interviews, and were assessed and for their ability to detect, recognize and differentiate basic taste attributes or mixtures thereof as part of a standardized acuity test. This included basic tastes of sweet, sour, salty, bitter and umami, as well as having the capacity to focus on specific aspects of sensory character such as ranking the various tastes perceived and identifying the basic tastes presented at threshold levels.
The effect of the test compounds on the perception of the sweet taste of an aqueous solution of sweetener in humans was evaluated using a two-alternative forced choice “sip and spit” method (2AFC).
(§1) The aqueous sweetener solutions were prepared by adding, fructose, sucrose or glucose (by weight), to water to achieve the desired concentration.
Compounds were first prepared as a 500-fold concentrated stock solution in 100% ethanol. These concentrated stocks were then added to the aqueous sweetener solutions to result in a final ethanol concentration of 0.2%. The control (positive and negative) samples were also normalized to 0.2% ethanol. This level of ethanol was not seen to contribute any perceived sweetness.
The 2AFC test used for compound evaluation was a blind and randomized test where taste panelists (n=15) evaluate a pair of sweetener solutions at a time one sample contains aqueous sweetener solution plus compound (i.e. test) while the other contains aqueous sweetener solution at higher concentration without compound (i.e. positive control). Each test sample was compared against a positive control. For example, if the test sample contained 1× sweetener concentration with compound (e.g. 5% sucrose with compound), the positive control sample contained a 1.1× sweetener concentration (e.g. 5.5% sucrose without compound).
Panelists were instructed not to eat or drink (except water) for at least 1 h before the test. During the test, panelists were instructed to sip each sample, swirl it around their mouth and then expectorate. After tasting each sample in the pair, panelists were instructed to record the sample that is “sweeter” in taste. Panelists cleansed their palates by rinsing with water, eating a cracker and waiting for an interval of about 5 minutes. Each pair was tasted twice. All samples were tasted at ambient temperatures. Data were analyzed using binomial probabilities.
Approximate levels of sweetness enhancement in column 5 of Table 2 were calculated as follows:
Approximate levels of sweetness enhancement=Sweetener concentration of positive control surpassed by the test sample, divided by sweetener concentration for compound-containing sample (e.g. 1.15×=5.75% sucrose/5% sucrose).

[2] = system: perception of the sweet taste in humans; test: Trained descriptive analysis (DA) panel, sweet attribute; details: 35 ppm; for compound effects beyond the additive effect of inherent sweetness: 4% fructose and 8% sucrose; for perceived sweetness compared to control sweetener solutions (FIG. 2): aqueous fructose and sucrose solutions at pH 3; for perceived sweetness compared to control sweetener solutions (FIG. 2) / perceived sweetness compared to control sweetener solutions (FIG. 1): ** p<0.01; for perceived sweetness compared to control sweetener solutions (FIG. 1): aqueous fructose and sucrose solutions at pH 7
Procedure: The effect of the test compounds on the perception of the sweet taste in an aqueous environment, in the absence or presence of carbohydrate sweeteners, was evaluated using a descriptive analysis methodology with a group of trained panelists, as follows.
Candidate panelists were recruited, with prescreening and personal interviews, and were assessed for their ability to detect, recognize and differentiate basic taste attributes or mixtures thereof as part of a standardized acuity test. These candidate panelists were also assessed for their innate ability to identify flavors, and to rank on intensity scales. Other senses such as smell and vision were also included as part of the assessment. Candidates also were screened for their ability to use the language to describe and articulate ideas.
Selected candidates proceeded to training as a group in three phases: (1) Lexicon development, (2) Concept alignment, and (3) Scaling descriptors. During lexicon development, panelists evaluated products appropriate for use in the study to generate and align on terms describing the flavor, taste, aromatic, trigeminal, and temporal attributes. During concept alignment, the panel evaluated the products mentioned above to clarify and confirm the attributes that were generated during lexicon development using reference standards that appropriately define each attribute; these are either physical references (e.g. sucrose solutions) or verbal descriptions (e.g. overall flavor). Product terms and concepts were validated during this portion of the study.
In the last phase, scaling descriptors, the panel participated in a series of exercises focused on ordering and ranking samples according to relative attribute intensity, measuring attribute intensity using a defined length of line scale. Whenever possible, different levels or concentration of references were used as anchors to facilitate use of the scale. Panelists were provided with blinded references at this stage to evaluate their understanding and perception of the scale.
The panel used in this example was trained to reference sweet attributes in an absolute manner, such that a particular concentration of sweetener is always measured by the panelists at the same point using a 15 cm line scale where each cm represents a 1% increase in sucrose to cover the range of 0% to 15% sucrose. For the rest of the attributes, the panel was trained using a hybrid approach between descriptive analysis methods (e.g. quantitative descriptive analysis, the sensory spectrum, etc.) well-known to those skilled in the art.
The trained panel was then used for a descriptive analysis assessment for Compounds 1, 2 and 3 in aqueous solutions at pH 3 and pH 7. Each of the three compounds was tested at 35 ppm in sucrose and fructose sweeteners. In addition, Compounds 1, 2 and 3 were also examined in water at pH 3 and pH 7 to assess for any inherent sweetness.
The aqueous sweetener solutions were prepared by adding, fructose or sucrose (by weight), to water to achieve the desired concentration. Aqueous sucrose solutions at pH 3 were buffered using a final concentration of 0.096% Citric Acid plus 0.036% Sodium Citrate while aqueous fructose solutions at pH 3 were buffered using a final concentration of 0.06% Citric Acid and 0.0225% Sodium Citrate.
Compounds were first prepared as a […] concentrated stock solution in 100% ethanol. These concentrated stocks were then added to the aqueous sweetener solutions to result in a final ethanol concentration of 0.2%. In addition to compounds, a solubilizing agent at a final concentration of 0.02% was added to the aqueous sweetener solutions. Control samples were also balanced with 0.2% ethanol and in certain cases 0.02% solubilizing agent.
Both control (aqueous sweetener solutions without compound) and variant (aqueous sweetener solutions with compound) samples were blinded and randomized (by sweetener and pH blocks). […]

[3] = system: perception of the sweet taste of an aqueous solution of sweetener in humans; test: Ranking "sip and spit" assessment of sweetness perception (R index); details: test sample 5% sucrose; compound 10 ppm; vs negative control; R index >=60 = significantly different
Procedure: The effect of the test compounds on the perception of the sweet taste of an aqueous solution of sweetener in humans was evaluated using a ranking “sip and spit” method.
as §1
Compounds were first prepared as a 500-fold concentrated stock solution in 100% ethanol. These concentrated stocks were then added to the aqueous sweetener solutions to result in a final ethanol concentration of 0.2%. The control (positive and negative) samples were also normalized to 0.2% ethanol.
In the ranking test used for compound evaluation, taste panelists (n=15), rank samples in increasing order of sweetness. One set, comprising of 6 samples, was presented to each panelists at a given time and are asked to rank them in order of increasing sweetness.
Panelists were instructed not to eat or drink (except water) for at least 1 h before the test. During the test, panelists were instructed to sip each sample, swirl it around their mouth and then expectorate. After tasting each set, panelists were instructed to rank the 6 samples within the set from least sweet to most sweet. Where rank 1—is lowest in sweetness and rank 6—is highest in sweetness. Panelists cleansed their palates by rinsing with water, eating a cracker and waiting for an interval of 10 minutes. […]

[4] = test sample 4% fructose, compound 25 ppm
[5] = test sample 4% fructose, positive control fructose, compound 25 ppm
[6] = test sample 4% fructose, positive control fructose, compound 20 ppm

SMILES: COc1ccc([C@@H]2CC(=O)c3c(O)cccc3O2)cc1O (single isomer, unassigned) [Compound 2]
- Fold increase in perceived sweetness [1, 4]: >1.20X
- Sweetener Concentration of positive control surpassed by test sample [1, 5]: > 4.8%
- Fold increase in perceived sweetness ([1]; test sample 5% sucrose, compound 15, 25 ppm): >1.20X
- Sweetener Concentration of positive control surpassed by test sample ([1]; test sample 5% sucrose, positive control sucrose, compound 15, 25 ppm): > 6%
- Fold increase in perceived sweetness ([1]; test sample 6.5% glucose, compound 10, 20, 25 ppm): >1.15X
- Sweetener Concentration of positive control surpassed by test sample ([1]; test sample 6.5% glucose, positive control glucose, compound 10, 20, 25 ppm): > 7.48%
- compound effects beyond the additive effect of inherent sweetness ([2]; pH 3, Table 7 vs Table 5): super-additive effects
- compound effects beyond the additive effect of inherent sweetness ([2]; pH 7, Table 6 vs Table 4): super-additive effects
- perceived sweetness compared to control sweetener solutions (FIG. 2) [2]: significant increase in perceived sweetness
- perceived sweetness compared to control sweetener solutions (FIG. 1) [2]: significant increase in perceived sweetness

SMILES: COc1ccc([C@H]2CC(=O)c3c(O)cccc3O2)cc1O (single isomer, unassigned) [Compound 3]
- Fold increase in perceived sweetness [1, 4]: >1.25X
- Sweetener Concentration of positive control surpassed by test sample [1, 5]: > 5%
- Fold increase in perceived sweetness ([1]; test sample 5% sucrose, compound 15 ppm): >1.20X
- Sweetener Concentration of positive control surpassed by test sample ([1]; test sample 5% sucrose, positive control sucrose, compound 15 ppm): > 6%
- Fold increase in perceived sweetness ([1]; test sample 6.5% glucose, compound 25 ppm): >1.20X
- Sweetener Concentration of positive control surpassed by test sample ([1]; test sample 6.5% glucose, positive control glucose, compound 25 ppm): > 7.8%
- compound effects beyond the additive effect of inherent sweetness ([2]; pH 3, Table 7 vs Table 5): super-additive effects
- compound effects beyond the additive effect of inherent sweetness ([2]; pH 7, Table 6 vs Table 4): super-additive effects
- perceived sweetness compared to control sweetener solutions (FIG. 2) [2]: significant increase in perceived sweetness
- perceived sweetness compared to control sweetener solutions (FIG. 1) [2]: significant increase in perceived sweetness

SMILES: COc1ccc(C2CC(=O)c3c(O)cc(OCCCC(=O)O)cc3O2)cc1O (centres unmarked) [Compound 4, 4-((5-hydroxy-2-(3-hydroxy-4-methoxyphenyl)-4-oxochroman-7-yl)oxy)butanoic acid]
- Sweetener Concentration of positive control surpassed by test sample [1, 6]: > 4.4%

SMILES: CCCOc1ccc(C2CC(=O)c3c(O)cc(O)cc3O2)cc1O (centres unmarked) [Compound 5, 5,7-dihydroxy-2-(3-hydroxy-4-propoxyphenyl)chroman-4-one]
- Sweetener Concentration of positive control surpassed by test sample [1, 6]: > 4.4%

SMILES: O=C1c2c(O)cc(O)cc2OC(c2ccc(O)c(O)c2)C1O (centres unmarked) [Compound 11, 2-(3,4-dihydroxyphenyl)-3,5,7-trihydroxychroman-4-one]
- R Index Score [3]: 64

SMILES: COc1ccc(C2CC(=O)c3c(O)cc(OCCCS(=O)(=O)[O-])cc3O2)cc1O.[K+] (centres unmarked) [Compound 14, 3-((5-hydroxy-2-(3-hydroxy-4-methoxyphenyl)-4-oxochroman-7-yl)oxy)propane-1-sulfonic acid potassium salt]
- Fold increase in perceived sweetness ([1]; test sample 4% fructose, compound 20 ppm): >1.1X
- Sweetener Concentration of positive control surpassed by test sample [1, 6]: > 4.4%

SMILES: COc1ccc(C2CC(=O)c3c(O)cc(F)cc3O2)cc1O (centres unmarked) [Compound 15, 7-fluoro-5-hydroxy-2-(3-hydroxy-4-methoxyphenyl)chroman-4-one]
- Sweetener Concentration of positive control surpassed by test sample [1, 6]: > 4.4%
